Laboratory results reported in patent US9353101B2 (Merck Sharp & Dohme Corp., priority 2012, dated 2016).

Molecular target: CETP (Homo sapiens (Human), UniProt P11597)
Test: In vitro radioactive assay of CETP-catalyzed CE and TG transfer (RTA assay), 95% human serum
Type: biochemical
Conditions: RTA assay in 95% human serum; read-out: RTA IC50 (CETP Inhibition)
Procedure: In Vitro Radioactive Assays of CETP-Catalyzed CE and TG Transfer (RTA Assay)
Reagents and sources are: [3H] cholesteryl oleate (GE #TRK.886), [3H] Triolein (Perkin-Elmer NET-431), Butylated hydroxyl toluene (Aldrich, #D4740-4), DOPC (Sigma, # P6354), Sodium Bromide (Fisher scientific #S255-500), PEG 8000 (Fisher, #BP233-1), and human HDL (Intracel Corp #RP-036).
An in vitro assay for determining IC50's to identify compounds that inhibit CETP transfer activity is performed based on a modification of a published method (Morton and Zilversmit, (1981) A plasma inhibitor of triglyceride and cholesteryl ester transfer activities, J. Biol. Chem. 256(23), 11992-11995). The ability of inhibitors to alter CETP activity is performed using two different assays: one using recombinant CETP and one using an endogenous plasma source of CETP. Both assays measure the transfer of [3H] cholesteryl oleate or [3H] triolein from exogenous LDL to HDL.
Radiolabeled donor particles are generated by first combining 100 μl of 200 μM butylated hydroxyl toluene in CHCl3, 216 μL of 21.57 mM DOPC in EtOH, and either 500 μCi [3H]-triolein (Perkin Elmer #NET-431) or 500 μCi [3H]-cholesteryl oleate (GE #TRK886) in a glass tube. Reagents are mixed, dried under nitrogen, and then resuspended in 2 mL of 50 mM Tris, 27 μM EDTA at pH 7.4. After a brief vortex, the solution is sonicated until clear and mixed with 20 mL of fresh human serum. The mixture is incubated overnight at 37° C. The [3H] labeled LDL substrate is separated at 1.063 g/ml density by sequential ultracentrifugal flotation in NaBr according to the method by (Havel, Eder et al. 1955; Chapman, Goldstein et al. 1981). Once isolated the particles are dialyzed 3× in CETP buffer (50 mM Tris, pH 7.4, 100 mM NaCl, 1 mM EDTA). Human HDL is purchased from Intracel and used as the acceptor particles.
Transfer assays are performed in a 96 or 384-well v-bottom polypropylene plate. For the RTA using recombinant CETP (2% RTA), an assay cocktail is prepared with the final concentrations 128 μg/mL HDL, 20 nM rCETP, 2% human serum, and 1×CETP buffer. 1 μL of each test compound diluted in DMSO is added to 47 μL of assay cocktail per well and incubated at 37° C. for 1 hour. To initiate the transfer reaction, 2 μL radiolabeled LDL is added. After an additional 60 min of incubation at 37° C., the transfer action is terminated by precipitation of LDL with an equal volume of 20% W/V PEG 8000. The plates are centrifuged at 2000 rpm for 30 minutes at 4° C. A 40 μL aliquot of the HDL-containing supernatant is transferred to a Packard Optiplate™ with 200 μL of MicroScint™ 20. After mixing, plates are counted by liquid scintillation. Counts present in the supernatant for blanks (wells containing only HDL acceptor, CETP buffer and DMSO) are subtracted from those containing test compounds and used to correct for non-specific transfer.
For the transfer assay using endogenous CETP from serum (95% RTA), the same procedure is used except that human serum is added such that a final concentration of serum of 95% of the total assay volume is achieved, yielding a concentration of approximately 15 nM endogenous CETP in the assay. This is then combined with HDL and CETP buffer and the reaction proceeds as above and is terminated as described.
Comparison of the counts of samples with inhibitors to an uninhibited (DMSO only) positive control yield a percent inhibition. A plot of percent inhibition vs. log of inhibitor concentration, fit to a Sigmoidal 4 parameter equation is used to calculate IC50.
Starting materials are commercially available or are made using known procedures or as shown below. The examples may be synthesized using the general schemes provided below. The data reported for the examples below were obtained using the RTA assay in 95% human serum.

CETP, sequence (P11597 18-493 limits assumed): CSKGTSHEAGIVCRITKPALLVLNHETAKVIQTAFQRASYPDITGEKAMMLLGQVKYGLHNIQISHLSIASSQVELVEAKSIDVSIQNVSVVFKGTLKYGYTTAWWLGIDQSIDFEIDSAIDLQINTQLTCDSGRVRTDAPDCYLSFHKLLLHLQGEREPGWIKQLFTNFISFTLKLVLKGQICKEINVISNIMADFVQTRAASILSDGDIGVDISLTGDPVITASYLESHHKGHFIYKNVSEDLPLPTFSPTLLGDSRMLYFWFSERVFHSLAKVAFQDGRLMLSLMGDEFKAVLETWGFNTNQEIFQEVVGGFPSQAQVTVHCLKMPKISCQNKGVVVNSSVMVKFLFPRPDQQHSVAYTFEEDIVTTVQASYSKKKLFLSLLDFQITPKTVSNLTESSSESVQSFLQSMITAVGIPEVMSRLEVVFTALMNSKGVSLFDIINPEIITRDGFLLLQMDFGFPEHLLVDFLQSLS

Question: Which IC50 does the source give for COc1ncc(-c2sc(C)nc2C)cc1-c1cnc(N2CC(F)C2)nc1CN1C(=O)O[C@H](c2cc(C(F)(F)F)cc(C(F)(F)F)c2)[C@@H]1C [Example 3, (4S,5R)-5-[3,5-Bis(trifluoromethyl)phenyl]-3-({5-[5-(2,4-dimethyl-1,3-thiazol-5-yl)-2-methoxypyridin-3-yl]-2-(3-fluoroazetidin-1-yl)pyrimidin-4-yl}methyl)-4-methyl-1,3-oxazolidin-2-one] here?
Answer: Its IC50 is 3 nM.

Question: For COc1ncc(C(C)C)cc1-c1cnc(N2CCC2)nc1CN1C(=O)O[C@H](c2cc(C(F)(F)F)cc(C(F)(F)F)c2)[C@@H]1C [Example 31], which IC50 is on record?
Answer: Its IC50 is 5 nM.

Question: Which IC50 does the source give for COc1ncc(-c2ccc(C(=O)OC(C)(C)C)cc2C)cc1-c1ccc(N2CC(F)(F)C2)nc1CN1C(=O)O[C@H](c2cc(C(F)(F)F)cc(C(F)(F)F)c2)[C@@H]1C [Example 59] here?
Answer: The IC50 was 15 nM.

Question: How did the IC50 turn out when COc1ncc(-c2ccc(C(=O)O)cc2C)cc1-c1cnc(N2CCOCC2)nc1CN1C(=O)O[C@H](c2cc(C(F)(F)F)cc(C(F)(F)F)c2)[C@@H]1C [Example 39, 4-{5-[4-({(4S,5R)-5-[3,5-Bis(trifluoromethyl)phenyl]-4-methyl-2-oxo-1,3-oxazolidin-3-yl}methyl)-2-(morpholin-4-yl)pyrimidin-5-yl]-6-methoxypyridin-3-yl}-3-methylbenzoic acid] was run?
Answer: Its IC50 is 13 nM.

Question: Which IC50 does the source give for COc1ncc(-c2ccc(C(=O)O)cc2C)cc1-c1cnc(N2CC(F)C2)nc1CN1C(=O)O[C@H](c2cc(F)cc(C(F)(F)F)c2)[C@@H]1C [Example 46, 4-{5-[2-(3-Fluoroazetidin-1-yl)-4-({(4S,5R)-5-[3-fluoro-5-(trifluoromethyl)phenyl]-4-methyl-2-oxo-1,3-oxazolidin-3-yl}methyl)pyrimidin-5-yl]-6-methoxypyridin-3-yl}-3-methylbenzoic acid] here?
Answer: The IC50 was 12 nM.

Question: For COc1ncc(C(C)C)cc1-c1cnc(N2CC(F)C2)nc1CN1C(=O)O[C@H](c2cc(F)cc(F)c2)[C@@H]1C [Example 14, (4S,5R)-5-(3,5-Difluorophenyl)-3-{[2-(3-fluoroazetidin-1-yl)-5-(5-isopropyl-2-methoxypyridin-3-yl)pyrimidin-4-yl]methyl}-4-methyl-1,3-oxazolidin-2-one], which IC50 is on record?
Answer: Its IC50 is 16 nM.

Question: COc1ncc(-c2ccc(C(=O)OC(C)(C)C)cc2C)cc1-c1ccc(N2CC(F)C2)nc1CN1C(=O)O[C@H](c2cc(C(F)(F)F)cc(C(F)(F)F)c2)[C@@H]1C [Example 61] was tested. Which IC50 did it give?
Answer: The IC50 was 15 nM.

Question: How did the IC50 turn out when COc1ncc(-c2c(C)n[nH]c2C)cc1-c1cnc(N2CC(F)(F)C2)nc1CN1C(=O)O[C@H](c2cc(C(F)(F)F)cc(C(F)(F)F)c2)[C@@H]1C [Example 23, (4S,5R)-5-[3,5-Bis(trifluoromethyl)phenyl]-3-({2-(3,3-difluoroazetidin-1-yl)-5-[5-(3,5dimethyl-1H-pyrazol-4-yl)-2-methoxypyridin-3-yl]pyrimidin-4-yl}methyl)-4-methyl-1,3-oxazolidin-2-one] was run?
Answer: Its IC50 is 15 nM.

Question: Which IC50 does the source give for COc1ncc(-c2ccc(C(=O)O)cc2C)cc1-c1cnc(N2CC(F)(F)C2)nc1CN1C(=O)O[C@H](c2cc(F)cc(C(F)(F)F)c2)[C@@H]1C [Example 47, 4-{5-[2-(3,3-Difluoroazetidin-1-yl)-4-({(4S,5R)-5-[3-fluoro-5-(trifluoromethyl)phenyl]-4-methyl-2-oxo-1,3-oxazolidin-3-yl}methyl)pyrimidin-5-yl]-6-methoxypyridin-3-yl}-3-methylbenzoic acid] here?
Answer: The IC50 was 9 nM.

Question: Which IC50 does the source give for COc1ncc(-c2ccc(C(=O)OC(C)(C)C)cc2C)cc1-c1ccc(N2CCOCC2)nc1CN1C(=O)O[C@H](c2cc(C(F)(F)F)cc(C(F)(F)F)c2)[C@@H]1C [Example 55] here?
Answer: Its IC50 is 22 nM.

Question: With COc1ncc(C(C)C)cc1-c1cnc(N2CCC[C@@H]2C)nc1CN1C(=O)O[C@H](c2cc(C(F)(F)F)cc(C(F)(F)F)c2)[C@@H]1C [Example 30] as the compound, how does the IC50 read?
Answer: Its IC50 is 18 nM.

Question: With COc1ncc(-c2ccc(C(=O)O)cc2C)cc1-c1cnc(N2CC(F)C2)nc1CN1C(=O)O[C@H](c2cc(F)cc(F)c2)[C@@H]1C [Example 44, 4-{5-[4-{[(4S,5R)-5-(3,5-Difluorophenyl)-4-methyl-2-oxo-1,3-oxazolidin-3-yl]methyl}-2-(3-fluoroazetidin-1-yl)pyrimidin-5-yl]-6-methoxypyridin-3-yl}-3-methylbenzoic acid] as the compound, how does the IC50 read?
Answer: The IC50 was 35 nM.

Question: With COc1ncc(-c2c(C)noc2C)cc1-c1cnc(N2CC(F)C2)nc1CN1C(=O)O[C@H](c2cc(C(F)(F)F)cc(C(F)(F)F)c2)[C@@H]1C [Example 7] as the compound, how does the IC50 read?
Answer: The IC50 was 3 nM.

Question: COc1ncc(-c2ccc(C(=O)O)cc2C)cc1-c1ccc(N2CC(F)(F)C2)nc1CN1C(=O)O[C@H](c2cc(C(F)(F)F)cc(C(F)(F)F)c2)[C@@H]1C [Example 60] was tested. Which IC50 did it give?
Answer: Its IC50 is 5 nM.

Question: Cc1cc(C(=O)O)ccc1-c1nc(C)c(-c2cnc(N3CC(F)(F)C3)nc2CN2C(=O)O[C@H](c3cc(C(F)(F)F)cc(C(F)(F)F)c3)[C@@H]2C)s1 [Example 52, 4-{5-[4-({(4S,5R)-5-[3,5-Bis(trifluoromethyl)phenyl]-4-methyl-2-oxo-1,3-oxazolidin-3-yl}methyl)-2-(3,3-difluoroazetidin-1-yl)pyrimidin-5-yl]-4-methyl-1,3-thiazol-2-yl}-3-methylbenzoic acid] was tested. Which IC50 did it give?
Answer: The IC50 was 61 nM.

Question: For Cc1cc(C(=O)O)ccc1-c1nc(C(C)(C)C)c(-c2cnc(N3CC(F)C3)nc2CN2C(=O)O[C@H](c3cc(C(F)(F)F)cc(C(F)(F)F)c3)[C@@H]2C)s1 [Example 50, 4-{5-[4-({(4S,5R)-5-[3,5-Bis(trifluoromethyl)phenyl]-4-methyl-2-oxo-1,3-oxazolidin-3-yl}methyl)-2-(3-fluoroazetidin-1-yl)pyrimidin-5-yl]-4-tert-butyl-1,3-thiazol-2-yl}-3-methylbenzoic acid], which IC50 is on record?
Answer: Its IC50 is 197 nM.

Question: Which IC50 does the source give for CCOc1ncc(C(F)(F)F)cc1-c1cnc(N2CC(F)C2)nc1CN1C(=O)O[C@H](c2cc(C(F)(F)F)cc(C(F)(F)F)c2)[C@@H]1C [Example 10] here?
Answer: The IC50 was 12 nM.

Question: For COc1ncc(C(F)(F)F)cc1-c1cnc(N2CC(F)C2)nc1CN1C(=O)O[C@H](c2cc(C(F)(F)F)cc(C(F)(F)F)c2)[C@@H]1C [Example 9, (4S,5R)-5-[3,5-Bis(trifluoromethyl)phenyl]-3-({2-(3-fluoroazetidin-1-yl)-5-[2-methoxy-5-(trifluoromethyl)pyridin-3-yl]pyrimidin-4-yl}methyl)-4-methyl-1,3-oxazolidin-2-one], which IC50 is on record?
Answer: Its IC50 is 14 nM.

Question: For COc1ncc(C(C)C)cc1-c1cnc(N2CC(F)(F)C2)nc1CN1C(=O)O[C@H](c2cc(C(F)(F)F)cc(C(F)(F)F)c2)[C@@H]1C [Example 28, (4S,5R)-5-[3,5-Bis(trifluoromethyl)phenyl]-3-{[2-(3,3-difluoroazetidin-1-yl)-5-(5-isopropyl-2-methoxypyridin-3-yl)pyrimidin-4-yl]methyl}-4-methyl-1,3-oxazolidin-2-one], which IC50 is on record?
Answer: The IC50 was 5 nM.

Question: Which IC50 does the source give for COc1ncc(-c2c(C)cc(C(=O)O)cc2C)cc1-c1cnc(N2CC(F)C2)nc1CN1C(=O)O[C@H](c2cc(F)cc(C(F)(F)F)c2)[C@@H]1C [Example 48, 4-{5-[2-(3-Fluoroazetidin-1-yl)-4-({(4S,5R)-5-[3-fluoro-5-(trifluoromethyl)phenyl]-4-methyl-2-oxo-1,3-oxazolidin-3-yl}methyl)pyrimidin-5-yl]-6-methoxypyridin-3-yl}-3,5-dimethylbenzoic acid] here?
Answer: Its IC50 is 15 nM.
